In patent publication US20080221083A1, “Heterobicyclic metalloprotease inhibitors” (priority 2006, published 2008):
pIC50: −log10 of the molar value.

Key:
[1] = target: T1, catalytic domain of MMP-3 enzyme (Homo sapiens, UniProt P08254); assay: Assay for determining MMP-3 inhibition; assay type: biochemical; details: fluorescent substrate NFF-3, pH 6.0; read-out: Summary of MMP-3 Activity for Compounds (IC50 MMP-3), Group
T1 construct: the catalytic domain of MMP-3 enzyme (Biomol, Cat. No. SE-109); purchased Biomol SE-109
T1 sequence (P08254 100-272 limits assumed): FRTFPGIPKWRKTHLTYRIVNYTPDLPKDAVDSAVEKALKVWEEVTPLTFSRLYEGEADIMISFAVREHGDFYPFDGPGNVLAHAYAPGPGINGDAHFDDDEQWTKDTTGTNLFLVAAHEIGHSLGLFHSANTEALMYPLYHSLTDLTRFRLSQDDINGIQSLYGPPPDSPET
Procedure: Assay for Determining MMP-3 Inhibition
The typical assay for MMP-3 activity is carried out in assay buffer comprised of 50 mM MES, pH 6.0, 10 mM CaCl2 and 0.05% Brij-35. Different concentrations of tested compounds are prepared in assay buffer in 50 μl aliquots. 10 μl of a 100 nM stock solution of the catalytic domain of MMP-3 enzyme (Biomol, Cat. No. SE-109) is added to the compound solution. The mixture of enzyme and compound in assay buffer is thoroughly mixed and incubated for 10 min at room temperature. Upon the completion of incubation, the assay is started by addition of 40 μl of a 12.5 μM stock solution of NFF-3 fluorescent substrate (Calbiochem, Cat. No. 480455). The time-dependent increase in fluorescence is measured at the 330 nm excitation and 390 nm emission by an automatic plate multireader. The IC50 values are calculated from the initial reaction rates.

[2] = target: T2, catalytic domain of MMP-13 enzyme (Homo sapiens, UniProt P45452); assay: Assay for determining MMP-13 inhibition; assay type: biochemical; details: MMP-13 fluorescent substrate, pH 7.5; read-out: Summary of MMP-13 Activity for Compounds (IC50 MMP-13), Group
T2 construct: catalytic domain of MMP-13 enzyme (produced by Alantos or commercially available from Invitek (Berlin), Cat. No. 30100812); purchased Invitek (Berlin) 30100812
Procedure: Assay for Determining MMP-13 Inhibition
The typical assay for MMP-13 activity is carried out in assay buffer comprised of 50 mM Tris, pH 7.5, 150 mM NaCl, 5 mM CaCl2 and 0.05% Brij-35. Different concentrations of tested compounds are prepared in assay buffer in 50 μl aliquots. 10 μl of a 50 nM stock solution of catalytic domain of MMP-13 enzyme (produced by Alantos or commercially available from Invitek (Berlin), Cat. No. 30100812) is added to the compound solution. The mixture of enzyme and compound in assay buffer is thoroughly mixed and incubated for 10 min at room temperature. Upon the completion of incubation, the assay is started by addition of 40 μl of a 12.5 μM stock solution of MMP-13 fluorescent substrate (Calbiochem, Cat. No. 444235). The time-dependent increase in fluorescence is measured at the 320 nm excitation and 390 nm emission by automatic plate multireader. The IC50 values are calculated from the initial reaction rates.

pIC50 [1]	pIC50 [2]	Compound
7.00 to 8.52	–	CCCN(CCC)C(=O)c1c[nH]c2c(C(=O)NCc3ccc4c(c3)NC(=O)CO4)ncnc12 [Example 48]
7.00 to 8.52	4.70 to 7.00	CC(C)(C)OC(=O)N1CC2CC1CN2C(=O)c1c[nH]c2c(C(=O)NCc3ccc4c(c3)NC(=O)CO4)ncnc12 (stereo not shown) [Example 50]
7.00 to 8.52	4.70 to 7.00	CC(C)(CO)NC(=O)c1c[nH]c2c(C(=O)NCc3ccc4c(c3)NC(=O)CO4)ncnc12 [Example 51]
7.00 to 8.52	4.70 to 7.00	COC(=O)[C@@H]1C[C@@H](O)CN1C(=O)c1c[nH]c2c(C(=O)NCc3ccc4c(c3)NC(=O)CO4)ncnc12 [Example 52]
4.70 to 7.00	–	C[C@@H](NC(=O)c1c[nH]c2c(C(=O)NCc3ccc4c(c3)NC(=O)CO4)ncnc12)c1ccccc1 [Example 60]
4.70 to 7.00	–	C[C@H](NC(=O)c1c[nH]c2c(C(=O)NCc3ccc4c(c3)NC(=O)CO4)ncnc12)c1ccccc1 [Example 61]
7.00 to 8.52	4.70 to 7.00	O=C1CN(C(=O)c2c[nH]c3c(C(=O)NCc4ccc5c(c4)NC(=O)CO5)ncnc23)CCN1 [Example 62]
4.70 to 7.00	–	CCOC(=O)CC1C(=O)NCCN1C(=O)c1c[nH]c2c(C(=O)NCc3ccc4c(c3)NC(=O)CO4)ncnc12 (stereo not shown) [Example 63]

Continued, compound first:

Compound	pIC50 [1]	pIC50 [2]
O=C(NCc1ccccc1)c1c[nH]c2c(C(=O)NCc3ccc(F)cc3)ncnc12 [Example 6]	7.00 to 8.52	4.70 to 7.00
CCC(CC)NC(=O)c1c[nH]c2c(C(=O)NCc3ccc4c(c3)NC(=O)CO4)ncnc12 [Example 31]	4.70 to 7.00	4.70 to 7.00
CC(C)NC(=O)c1c[nH]c2c(C(=O)NCc3ccc4c(c3)NC(=O)CO4)ncnc12 [Example 32]	4.70 to 7.00	–
O=C1COc2ccc(CNC(=O)c3ncnc4c(C(=O)NC5CCCC5)c[nH]c34)cc2N1 [Example 33]	7.00 to 8.52	–
O=C1COc2ccc(CNC(=O)c3ncnc4c(C(=O)NCc5ccccc5)c[nH]c34)cc2N1 [Example 34]	7.00 to 8.52	4.70 to 7.00
O=C1COc2ccc(CNC(=O)c3ncnc4c(C(=O)NCC5CCCCC5)c[nH]c34)cc2N1 [Example 35]	7.00 to 8.52	4.70 to 7.00
O=C1COc2ccc(CNC(=O)c3ncnc4c(C(=O)NCC5(O)CCCCC5)c[nH]c34)cc2N1 [Example 40]	4.70 to 7.00	4.70 to 7.00
CNC(=O)c1c[nH]c2c(C(=O)NCc3ccc4c(c3)NC(=O)CO4)ncnc12 [Example 41]	4.70 to 7.00	–
O=C1COc2ccc(CNC(=O)c3ncnc4c(C(=O)N5CCC(O)CC5)c[nH]c34)cc2N1 [Example 42]	4.70 to 7.00	–
COc1cccc(CNC(=O)c2c[nH]c3c(C(=O)NCc4ccc5c(c4)NC(=O)CO5)ncnc23)c1 [Example 45]	4.70 to 7.00	4.70 to 7.00
CN(Cc1ccccc1)C(=O)c1c[nH]c2c(C(=O)NCc3ccc4c(c3)NC(=O)CO4)ncnc12 [Example 46]	7.00 to 8.52	4.70 to 7.00
CCCCN(CC)C(=O)c1c[nH]c2c(C(=O)NCc3ccc4c(c3)NC(=O)CO4)ncnc12 [Example 47]	7.00 to 8.52	–
